Laboratory results: patent publication US20140249041A1, “Marker of Prostate Cancer” (Region Midtjylland, priority 2009, published 2014)

Experiments:
SLC18A2 expression = SLC18A2 expression by real-time PCR in cell lines after epigenetic drug treatment; assay type: cell-based
Description: RNA Preparation, cDNA Synthesis and Quantitative RT-PCR Total RNA from cultured cells and prostate tissue samples was isolated with the RNeasy MinElute Cleanup Kit (Qiagen), as described elsewhere (20). First-strand cDNA synthesis was performed with SuperScript II Reverse Transcriptase (Invitrogen) using oligo(dT) priming. SLC18A2 expression was measured with TaqMan Gene Expression Assay Hs00161858_ml and TaqMan Universal PCR Master Mix on a real-time ABI PRISM 7500 Sequence Detection System (all from Applied Biosystems). For normalization, UBC expression was measured using primers 5′-GATTTGGGTCGCGGTTCTT-3′ (SEQ ID NO: 6) plus 5′-[…]-3′ (SEQ ID NO: 7) and SYBR GREEN PCR Master Mix (Applied Biosystems). All reactions were run in triplicates.
All cell lines were grown in RPMI 1640 with L-glutamin (Gibco, Invitrogen) supplemented with 10% fetal bovine serum, 100 U/ml penicillin and 100 μg/ml streptomycin. LNCaP, PC-3, DU145, and 22rv1 cells were obtained from ATCC, BPH-1 cells from DSMZ (Braunschweig, Germany), and PNT1A cells from ECACC. PSK-1 cells were kindly provided by Dr. Adrie van Boekhoven (University of Colorado), VCaP and DuCaP cells by Dr. Kenneth Pienta (University of Michigan), and H69 and H69A cells by Dr. Marie Stampe Ostenfeld (Danish Cancer Society, Copenhagen, Denmark). Cell lines were treated with 1 μM 5-aza-2′-deoxycytidine (Sigma) for 48 h and allowed 5 days recovery in complete medium. Four cell lines were given a combination of 1 μM 5-aza-2′-deoxycytidine (48 h treatment plus 5 days recovery) and 1 mM 4-phenylbutyric acid (Sigma) (continuously for 7 days). Mock treated cells were given buffer only. Growth media were changed daily and cells harvested on day 7. All experiments were performed in duplicate and repeated 2-3 times.

[1] = system: SLC18A2 promoter CpG island; assay: Bisulfite sequencing of SLC18A2 CpG island in cell lines before and after epigenetic drug treatment; assay type: cell-based; conditions: PSK-1 cells; 1 μM 5-aza-2′-deoxycytidine; from 69% before treatment
Description: For bisulfite sequencing, genomic DNA from prostate cell lines and carefully selected 20-μm sections of fresh-frozen Tissue-tek-embedded BPH, adenocarcinoma and adjacent non-malignant prostate tissue samples was isolated using the PUREGENE DNA Purification Kit (Gentra Systems) with proteinase K treatment (100 units, 30 min, 37 C), as previously described (29). Laser-microdissection was performed as described in (31). DNA was bisulfite converted using the MethylEasy DNA Bisulfite Modification Kit (Human Molecular Signaling, Sydney, Australia). The SLC18A2 promoter CpG island was PCR amplified with TEMPase Hot Start DNA Polymerase (Ampliqon) using primers 5′-[…]-3′ (SEQ ID NO: 8) and 5′-[…]-3′ (SEQ ID NO: 9). Gel purified (illustra GFX PCR DNA and Gel Band Purification Kit; GE Healthcare) amplicons were subcloned into the pCR4-TOPO vector (Invitrogen) and several clones sequenced using M13 forward and reverse primers. Clinicopathological data from patients undergoing methylation analysis is compiled in FIG. 4.
All cell lines were grown in RPMI 1640 with L-glutamin (Gibco, Invitrogen) supplemented with 10% fetal bovine serum, 100 U/ml penicillin and 100 μg/ml streptomycin. LNCaP, PC-3, DU145, and 22rv1 cells were obtained from ATCC, BPH-1 cells from DSMZ (Braunschweig, Germany), and PNT1A cells from ECACC. […]

Nc1ncn([C@H]2C[C@H](O)[C@@H](CO)O2)c(=O)n1 [5-aza-2′-deoxycytidine]
induction of SLC18A2 expression (SLC18A2 expression; H69A cells (derived adherent line), 1 μM 5-aza-2′-deoxycytidine): not observed | induction of SLC18A2 expression (SLC18A2 expression; H69 cells, 1 μM 5-aza-2′-deoxycytidine 48 h plus 5 days recovery): induced SLC18A2 expression | induction of SLC18A2 expression (SLC18A2 expression; PSK-1 cells, 1 μM 5-aza-2′-deoxycytidine 48 h plus 5 days recovery): induced SLC18A2 expression | CpG island methylation after treatment [1]: 11%
